Test results published in article PMC10687582, “Herpetrione, a New Type of PPARα Ligand as a Therapeutic Strategy Against Nonalcoholic Steatohepatitis” (Research, 2023).

Molecular target: T1, PPARα (Homo sapiens, UniProt Q07869)
T1 construct: gene PPARA
T1 sequence (Q07869 200-468 limits assumed): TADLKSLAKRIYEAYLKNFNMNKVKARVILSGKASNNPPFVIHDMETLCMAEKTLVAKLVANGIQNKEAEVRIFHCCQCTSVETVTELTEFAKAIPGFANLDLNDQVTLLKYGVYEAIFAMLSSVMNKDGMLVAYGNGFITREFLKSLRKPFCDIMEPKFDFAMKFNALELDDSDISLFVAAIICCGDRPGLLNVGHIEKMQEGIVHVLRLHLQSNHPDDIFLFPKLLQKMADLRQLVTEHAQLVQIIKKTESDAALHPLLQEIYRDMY
Assay: ITC (KD […]; WT in the mutant comparison […]); SPR KD […]; CETSA and DARTS in HepG2 lysates
Format: binding

COc1cc(C(=O)C(CO)c2cc(C3OCC4C(c5ccc(O)c(OC)c5)OCC34)cc(OC)c2O)ccc1O (stereo not shown) [herpetrione]
Kd: 3.27 µM
